{"source": "patent US7998988B2", "about": "“Biphenyl compounds useful in the treatment or prevention of cardiovascular disorders” (Bayer Schering Pharma Aktiengellschaft, priority 2005, dated 2011)", "key": {"[1]": {"test_system": "saphenous artery rings", "assay": "Vasorelaxant effect in vitro (phenylephrine-contracted artery rings)", "type": "cell-based", "details": "rabbit saphenous artery rings, contraction induced by phenylephrine", "protocol": "Rabbits are anesthetized and sacrificed by intravenous injection of thiopental sodium (about 50 mg/kg) and exsanguinated. The saphenous artery is removed and divided into rings 3 mm wide. The rings are mounted singly on in each case a pair of triangular hooks open at the end and made of 0.3 mm-thick special wire (Remanium®). Each ring is placed under an initial tension in 5 ml organ baths with Krebs-Henseleit solution which is at 37° C., is gassed with 95% 02/5% CO2 and has the following composition: NaCl 119 mM; KCl 4.8 mM; CaCl2×2H2O 1 mM; MgSO4×7 H2O 1.4 mM; KH2PO4 1.2 mM; NaHCO3 25 mM; glucose 10 mM; bovine serum albumin 0.001%. The force of contraction is detected with Statham UC2 cells, amplified and digitized via A/D converters (DAS-1802 HC, Keithley Instruments, Munich) and recorded in parallel on chart recorders. Contractions are induced by addition of phenylephrine.\nAfter several (generally 4) control cycles, the substance to be investigated is added in each further run in increasing dosage, and the height of the contraction achieved under the influence of the test substance is compared with the height of the contraction reached in the last preceding run. The concentration necessary to reduce the contraction reached in the preceding control by 50% is calculated from this (IC50). The standard application volume is 5 μl. The proportion of DMSO in the bath solution corresponds to 0.1%."}, "[2]": {"biological_target": "T1, heme-containing recombinant soluble guanylate cyclase (sGC) (Rattus norvegicus, UniProt P20595)", "T1 construct": "made in house", "T1 sequence (P20595 1-619)": "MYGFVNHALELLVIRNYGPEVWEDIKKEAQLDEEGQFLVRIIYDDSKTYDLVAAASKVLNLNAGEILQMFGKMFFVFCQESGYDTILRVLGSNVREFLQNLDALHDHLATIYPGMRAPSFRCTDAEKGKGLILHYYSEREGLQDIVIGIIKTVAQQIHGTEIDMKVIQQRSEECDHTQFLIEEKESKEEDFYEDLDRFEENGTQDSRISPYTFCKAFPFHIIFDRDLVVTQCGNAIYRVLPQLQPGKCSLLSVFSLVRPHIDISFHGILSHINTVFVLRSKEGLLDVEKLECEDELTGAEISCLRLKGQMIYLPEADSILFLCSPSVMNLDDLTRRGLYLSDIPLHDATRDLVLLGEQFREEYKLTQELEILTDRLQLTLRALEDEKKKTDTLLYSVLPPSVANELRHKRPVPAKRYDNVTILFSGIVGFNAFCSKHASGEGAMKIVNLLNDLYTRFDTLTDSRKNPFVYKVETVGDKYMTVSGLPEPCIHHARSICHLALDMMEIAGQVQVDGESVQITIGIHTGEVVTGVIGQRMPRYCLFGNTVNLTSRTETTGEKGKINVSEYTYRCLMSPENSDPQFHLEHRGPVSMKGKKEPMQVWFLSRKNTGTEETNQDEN", "T1 sequence (P19686 1-690 partner)": "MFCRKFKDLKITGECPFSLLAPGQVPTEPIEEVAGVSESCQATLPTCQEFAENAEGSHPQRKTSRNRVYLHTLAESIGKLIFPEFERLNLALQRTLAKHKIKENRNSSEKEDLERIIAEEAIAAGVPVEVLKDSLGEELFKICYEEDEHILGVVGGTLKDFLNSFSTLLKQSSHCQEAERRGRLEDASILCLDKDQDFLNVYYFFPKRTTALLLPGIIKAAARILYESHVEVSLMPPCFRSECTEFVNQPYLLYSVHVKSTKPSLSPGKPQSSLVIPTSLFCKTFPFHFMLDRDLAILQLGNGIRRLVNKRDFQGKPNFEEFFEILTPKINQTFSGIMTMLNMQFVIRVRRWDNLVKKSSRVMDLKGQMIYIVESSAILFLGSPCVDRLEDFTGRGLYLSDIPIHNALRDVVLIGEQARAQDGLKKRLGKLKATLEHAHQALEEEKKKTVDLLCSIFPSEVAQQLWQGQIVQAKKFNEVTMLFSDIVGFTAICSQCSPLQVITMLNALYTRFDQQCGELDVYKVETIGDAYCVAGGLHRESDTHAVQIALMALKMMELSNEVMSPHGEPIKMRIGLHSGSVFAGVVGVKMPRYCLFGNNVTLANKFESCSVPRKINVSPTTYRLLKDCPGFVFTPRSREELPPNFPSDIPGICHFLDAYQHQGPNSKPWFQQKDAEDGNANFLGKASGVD", "assay": "Stimulation of recombinant soluble guanylate cyclase (sGC) in vitro, heme-containing", "type": "biochemical", "from_the_text": "Hoenicka, E. M. Becker, H. Apeler, T. Sirichoke, H. Schroeder, R. Gerzer and J.-P. Stasch, “Purified soluble guanylyl cyclase expressed in a baculovirus/Sf9 system: Stimulation by YC-1, nitric oxide, and carbon oxide”, J. Mol. Med. 77 (1999), 14-23. The heme-free guanylate cyclase is obtained by adding Tween 20 to the sample buffer (0.5% in the final concentration).\n(§1) The activation of sGC by a test substance is reported as n-fold stimulation of the basal activity."}, "[3]": {"biological_target": "T2, heme-free recombinant soluble guanylate cyclase (sGC) (Rattus norvegicus, UniProt P20595)", "T2 construct": "made in house", "T2 sequence (P20595 1-619)": "T1 sequence (P20595 1-619)", "T2 sequence (P19686 1-690 partner)": "T1 sequence (P19686 1-690 partner)", "assay": "Stimulation of recombinant soluble guanylate cyclase (sGC) in vitro, heme-free", "type": "biochemical", "details": "heme-free sGC (Tween 20)", "protocol": "Investigations on the stimulation of recombinant soluble guanylate cyclase (sGC) by the compounds according to the invention with and without sodium nitroprusside, and with and without the heme-dependent sGC inhibitor 1H-1,2,4-oxadiazole-(4,3a)-quinoxalin-1-one (ODQ) are carried out by the method described in detail in the following reference: M. Hoenicka, E. M. Becker, H. Apeler, T. Sirichoke, H. Schroeder, R. Gerzer and J.-P. Stasch, “Purified soluble guanylyl cyclase expressed in a baculovirus/Sf9 system: Stimulation by YC-1, nitric oxide, and […]”, J. Mol. Med. 77 (1999), 14-23. The heme-free guanylate cyclase is obtained by adding Tween 20 to the sample buffer (0.5% in the final concentration).\nas §1"}}, "data": [{"smiles": "O=C(O)c1ccc(CCC(/C=C/c2ccccc2OCc2ccc(-c3ccc(C(F)(F)F)cc3)cc2)Cc2ccc(-c3noc(=O)[nH]3)cc2)cc1", "note": "(single isomer, unassigned) [Example 55, E-4-{3-[4-(5-Oxo-4,5-dihydro-[1,2,4]oxadiazol-3-yl)benzyl]-5-[2-(4′-trifluoromethylbiphenyl-4-ylmethoxy)phenyl]pent-4-enyl}benzoic acid]", "values": [{"measurement": "IC50", "setting": "[1]", "result": 146, "unit": "nM"}, {"measurement": "Stimulation (n-fold) of sGC, +0.01 μM DEA/NO", "setting": "[2]; 0.001 μM test substance", "result": 10.6, "unit": "n-fold"}, {"measurement": "Stimulation (n-fold) of sGC, +0.01 μM DEA/NO", "setting": "[2]; 0.01 μM test substance", "result": 13.0, "unit": "n-fold"}, {"measurement": "Stimulation (n-fold) of sGC, +0.01 μM DEA/NO", "setting": "[2]; 0.1 μM test substance", "result": 25.5, "unit": "n-fold"}, {"measurement": "Stimulation (n-fold) of sGC, +0.01 μM DEA/NO", "setting": "[2]; 1 μM test substance", "result": 35.4, "unit": "n-fold"}, {"measurement": "Stimulation (n-fold) of sGC, +0.01 μM DEA/NO", "setting": "[2]; 10 μM test substance", "result": 42.5, "unit": "n-fold"}, {"measurement": "Stimulation (n-fold) of sGC, +0.1 μM DEA/NO", "setting": "[2]; 0.001 μM test substance", "result": 50.3, "unit": "n-fold"}, {"measurement": "Stimulation (n-fold) of sGC, +0.1 μM DEA/NO", "setting": "[2]; 0.01 μM test substance", "result": 53.4, "unit": "n-fold"}, {"measurement": "Stimulation (n-fold) of sGC, +0.1 μM DEA/NO", "setting": "[2]; 0.1 μM test substance", "result": 66.5, "unit": "n-fold"}, {"measurement": "Stimulation (n-fold) of sGC, +0.1 μM DEA/NO", "setting": "[2]; 1 μM test substance", "result": 75.1, "unit": "n-fold"}, {"measurement": "Stimulation (n-fold) of sGC, +0.1 μM DEA/NO", "setting": "[2]; 10 μM test substance", "result": 81.5, "unit": "n-fold"}, {"measurement": "Stimulation (n-fold) of sGC, +10 μM ODQ", "setting": "[2]; 0.01 μM test substance", "result": 12.7, "unit": "n-fold"}, {"measurement": "Stimulation (n-fold) of sGC, +10 μM ODQ", "setting": "[2]; 0.1 μM test substance", "result": 66.3, "unit": "n-fold"}, {"measurement": "Stimulation (n-fold) of sGC, +10 μM ODQ", "setting": "[2]; 1 μM test substance", "result": 107.4, "unit": "n-fold"}, {"measurement": "Stimulation (n-fold) of sGC, +10 μM ODQ", "setting": "[2]; 10 μM test substance", "result": 105.5, "unit": "n-fold"}, {"measurement": "Stimulation (n-fold) of sGC, Basal", "setting": "[2]; 0.001 μM test substance", "result": 1.4, "unit": "n-fold"}, {"measurement": "Stimulation (n-fold) of sGC, Basal", "setting": "[2]; 0.01 μM test substance", "result": 3.1, "unit": "n-fold"}, {"measurement": "Stimulation (n-fold) of sGC, Basal", "setting": "[2]; 0.1 μM test substance", "result": 15.5, "unit": "n-fold"}, {"measurement": "Stimulation (n-fold) of sGC, Basal", "setting": "[2]; 1 μM test substance", "result": 25.4, "unit": "n-fold"}, {"measurement": "Stimulation (n-fold) of sGC, Basal", "setting": "[2]; 10 μM test substance", "result": 33.0, "unit": "n-fold"}, {"measurement": "Synergism with the NO donor DEA/NO on sGC stimulation", "setting": "[2]; combination with DEA/NO", "result": "no synergistic effect"}, {"measurement": "Stimulation (n-fold) of heme-free sGC, Basal", "setting": "[3]; 0.001 μM test substance", "result": 3.7, "unit": "n-fold"}, {"measurement": "Stimulation (n-fold) of heme-free sGC, Basal", "setting": "[3]; 0.01 μM test substance", "result": 24.0, "unit": "n-fold"}, {"measurement": "Stimulation (n-fold) of heme-free sGC, Basal", "setting": "[3]; 0.1 μM test substance", "result": 98.1, "unit": "n-fold"}, {"measurement": "Stimulation (n-fold) of heme-free sGC, Basal", "setting": "[3]; 1 μM test substance", "result": 132.6, "unit": "n-fold"}, {"measurement": "Stimulation (n-fold) of heme-free sGC, Basal", "setting": "[3]; 10 μM test substance", "result": 137.9, "unit": "n-fold"}]}]}
